Activity calls are given as the source filed them. The rule behind the calls is not given here.
Assays:
IGROV-1 [1] = test: Induction of apoptosis in human IGROV1 cells assessed as cleaved caspase-3 containing cells at 5 uM after 24 hrs by FACS analysis (reference value: 4%); assay type: functional
PC-3 [2] = test: Cell cycle arrest in human PC3 cells assessed as accumulation at >G2 phase at 50 uM after 24 hrs by propidium iodide staining based flow cytometry (reference value: 6%); assay type: functional
[3] = (§1) Growth inhibition of NHDF cells after 48 hrs by SRB assay; assay type: cell-based; settings: human, NHDF cells
NHDF = test: as §1; assay type: cell-based; settings: human, nhdf, 48 h
PC-3 [4] = test: Induction of apoptosis in human PC3 cells assessed as early apoptotic cells at 15 uM after 24 hrs by Annexin V/7-AAD staining based flow cytometry (reference value: 5%); assay type: functional
BXPC-3 [5] = test: Induction of apoptosis in human BxPC3 cells assessed as late apoptotic cells at 15 uM after 24 hrs by Annexin V/7-AAD staining based flow cytometry (reference value: 9%); assay type: functional
PC-3 [6] = test: Cell cycle arrest in human PC3 cells assessed as accumulation at < G1 phase at 15 uM after 24 hrs by propidium iodide staining based flow cytometry (reference value: 4%); assay type: functional
IGROV-1 [7] = test: Cell cycle arrest in human IGROV1 cells assessed as accumulation at < G1 phase at 5 uM after 24 hrs by propidium iodide staining based flow cytometry (reference value: 4%); assay type: functional
[8] = Displacement of [3H]BTX-B from Na+ channel site 2 after 60 mins by liquid scintillation spectroscopy
LOX IMVI = test: Growth inhibition of human LOXIMVI cells after 48 hrs by SRB assay; assay type: functional
PC-3 [9] = test: Cell cycle arrest in human PC3 cells assessed as accumulation at G2 phase at 5 uM after 24 hrs by propidium iodide staining based flow cytometry (reference value: 13%); assay type: functional
IGROV-1 [10] = test: Induction of apoptosis in human IGROV1 cells assessed as healthy cells at 5 uM after 24 hrs by Annexin V/7-AAD staining based flow cytometry (reference value: 86%); assay type: functional
PC-3 [11] = test: Cell cycle arrest in human PC3 cells assessed as accumulation at S phase at 15 uM after 24 hrs by propidium iodide staining based flow cytometry (reference value: 42%); assay type: functional
PC-3 [12] = test: Induction of apoptosis in human PC3 cells assessed as late apoptotic cells at 50 uM after 24 hrs by Annexin V/7-AAD staining based flow cytometry (reference value: 2%); assay type: functional
[13] = Displacement of [3H](+)1-DTG from sigma-2 receptor expressed in rat cerebral cortex membranes after 2 hrs by liquid scintillation spectroscopy; assay type: cell membranes, Membrane
HCT-116 = test: Cytotoxicity against human HCT116 cells after 48 hrs by trypan blue assay; assay type: functional, cell-based
IGROV-1 [14] = test: Cell cycle arrest in human IGROV1 cells assessed as accumulation at G2 phase at 15 uM after 24 hrs by propidium iodide staining based flow cytometry (reference value: 19%); assay type: functional
BXPC-3 [15] = test: Cell cycle arrest in human BxPC3 cells assessed as accumulation at < G1 phase at 0.5 uM after 24 hrs by propidium iodide staining based flow cytometry (reference value: 9%); assay type: functional
BXPC-3 [16] = test: Cell cycle arrest in human BxPC3 cells assessed as accumulation at G1 phase at 5 uM after 24 hrs by propidium iodide staining based flow cytometry (reference value: 41%); assay type: functional
IGROV-1 [17] = test: Induction of apoptosis in human IGROV1 cells assessed as early apoptotic cells at 0.5 uM after 24 hrs by Annexin V/7-AAD staining based flow cytometry (reference value: 9%); assay type: functional
BXPC-3 [18] = test: Cell cycle arrest in human BxPC3 cells assessed as accumulation at < G1 phase at 15 uM after 24 hrs by propidium iodide staining based flow cytometry (reference value: 9%); assay type: functional
Mus musculus [19] = test: Toxicity in CD1 mouse assessed as weight loss at 40 mg/kg, ip after 3 to 4 weeks chronic treatment; assay type: organism-based; design: dose 40 mg/kg, route intraperitoneal; settings: in vivo
Mus musculus [20] = test: Toxicity in CD1 mouse assessed as mortality at 40 mg/kg, ip after 3 to 4 weeks chronic treatment; assay type: organism-based; design: dose 40 mg/kg, route intraperitoneal; settings: in vivo
PC-3 [21] = test: Cell cycle arrest in human PC3 cells assessed as accumulation at S phase at 50 uM after 24 hrs by propidium iodide staining based flow cytometry (reference value: 42%); assay type: functional
PC-3 [22] = test: Induction of apoptosis in human PC3 cells assessed as total apoptotic death cells at 5 uM after 24 hrs by Annexin V/7-AAD staining based flow cytometry (reference value: 7%); assay type: functional
SK-HEP1 = test: Growth inhibition of human SKHEP1 cells after 48 hrs by SRB assay; assay type: functional; settings: SK-HEP1, 48 h
MCF7 = test: Cytotoxicity against human MCF7 cells after 48 hrs by trypan blue assay; assay type: functional, cell-based
BXPC-3 [23] = test: Induction of apoptosis in human BxPC3 cells assessed as total apoptotic death cells at 15 uM after 24 hrs by Annexin V/7-AAD staining based flow cytometry (reference value: 20%); assay type: functional
PC-3 [24] = test: Cell cycle arrest in human PC3 cells assessed as accumulation at G1 phase at 15 uM after 24 hrs by propidium iodide staining based flow cytometry (reference value: 36%); assay type: functional
[25] = Selectivity ratio of IC50 for human sigma-1 receptor to IC50 for rat sigma-2 receptor
BXPC-3 [26] = test: Induction of apoptosis in human BxPC3 cells assessed as early apoptotic cells at 0.5 uM after 24 hrs by Annexin V/7-AAD staining based flow cytometry (reference value: 11%); assay type: functional
HL-60(TB) = test: Growth inhibition of human HL-60(TB) cells after 48 hrs by SRB assay; assay type: functional; settings: HL-60, 48 h
IGROV-1 [27] = test: Growth inhibition of human IGROV1 cells after 48 hrs by SRB assay; assay type: functional; settings: IGROV-1, 48 h
PC-3 [28] = test: Cell cycle arrest in human PC3 cells assessed as accumulation at G1 phase at 50 uM after 24 hrs by propidium iodide staining based flow cytometry (reference value: 36%); assay type: functional
PC-3 [29] = test: Induction of apoptosis in human PC3 cells assessed as healthy cells at 15 uM after 24 hrs by Annexin V/7-AAD staining based flow cytometry (reference value: 92%); assay type: functional
DU-145 = test: Growth inhibition of human DU145 cells after 48 hrs by SRB assay; assay type: functional; settings: DU-145, 48 h
NCI-H460 = test: Growth inhibition of human NCI-H460 cells after 48 hrs by SRB assay; assay type: functional; settings: NCI-H460, 48 h
IGROV-1 [30] = test: Cell cycle arrest in human IGROV1 cells assessed as accumulation at G1 phase at 5 uM after 24 hrs by propidium iodide staining based flow cytometry (reference value: 27%); assay type: functional
IGROV-1 [31] = test: Induction of apoptosis in human IGROV1 cells assessed as late apoptotic cells at 50 uM after 24 hrs by Annexin V/7-AAD staining based flow cytometry (reference value: 4%); assay type: functional
[32] = read-out: LC50 (the source's name)

SMILES: CN1CCN(c2ccc(C(c3ccccc3)C34CC5CC(CC(C5)C3)C4)cc2)CC1 (configuration not stated)
- Activity (IGROV-1 [1]): 7%
- Activity (PC-3 [2]): 11%
- GI50 at 48 h [3]: 5.3 µM
- LC50 (NHDF): 100 µM
- TGI (NHDF): 9.6 µM
- Activity (PC-3 [4]): 6%
- Activity (BXPC-3 [5]): 16%
- Activity (PC-3 [6]): 8%
- Activity (IGROV-1 [7]): 5%
- IC50 [8]: 1200 nM
- GI50 (LOX IMVI): 3.36 µM
- LC50 (concentration killing 50% of cells) (LOX IMVI): 8.41 µM
- TGI (LOX IMVI): 5.88 µM
- Activity (PC-3 [9]): 13%
- Activity (IGROV-1 [10]): 88%
- Activity (PC-3 [11]): 33%
- Activity (PC-3 [12]): 9%
- IC50 [13]: 37.6 nM
- Activity (HCT-116): Active
- Activity (IGROV-1 [14]): 21%
- Activity (BXPC-3 [15]): 11%
- Activity (BXPC-3 [16]): 43%
- Activity (IGROV-1 [17]): 8%
- Activity (BXPC-3 [18]): 8%
- Activity (Mus musculus [19]): Non-toxic
- Activity (Mus musculus [20]): Non-toxic
- Activity (PC-3 [21]): 34%
- Activity (PC-3 [22]): 7%
- GI50 (SK-HEP1): 6.05 µM
- TGI (SK-HEP1): 28.4 µM
- CC50 (SK-HEP1; [32]): 77.6 µM
- Activity (MCF7): Active
- Activity (BXPC-3 [23]): 28%
- Activity (PC-3 [24]): 49%
- Ratio IC50 [25]: 11.8
- Activity (BXPC-3 [26]): 10%
- GI50 (HL-60(TB)): 5.04 µM
- LC50 (HL-60(TB)): 78.5 µM
- TGI (HL-60(TB)): 9.63 µM
- GI50 (IGROV-1 [27]): 8.83 µM
- TGI (IGROV-1 [27]): 58.5 µM
- CC50 (IGROV-1 [27]; [32]): 100 µM
- Activity (PC-3 [28]): 35%
- Activity (PC-3 [29]): 89%
- GI50 (DU-145): 6.43 µM
- TGI (DU-145): 65.5 µM
- CC50 (DU-145; [32]): 100 µM
- GI50 (NCI-H460): 4.41 µM
- LC50 (concentration killing 50% of cells) (NCI-H460): 100 µM
- TGI (NCI-H460): 7.66 µM
- Activity (IGROV-1 [30]): 25%
- Activity (IGROV-1 [31]): 16%

Source: ChEMBL document CHEMBL2021794, “Synthesis, σ₁, σ₂-receptors binding affinity and antiproliferative action of new C1-substituted adamantanes” (Bioorg Med Chem, 2012)
